These results are taken from PubChem BioAssay AID1418 (Emory University Molecular Libraries Screening Center, 2008).

The source made the active and inactive calls. The rule behind the calls is not given here.

Sequence of Induced myeloid leukemia cell differentiation protein Mcl-1 (Homo sapiens) (Q07820 whole entry, looked up): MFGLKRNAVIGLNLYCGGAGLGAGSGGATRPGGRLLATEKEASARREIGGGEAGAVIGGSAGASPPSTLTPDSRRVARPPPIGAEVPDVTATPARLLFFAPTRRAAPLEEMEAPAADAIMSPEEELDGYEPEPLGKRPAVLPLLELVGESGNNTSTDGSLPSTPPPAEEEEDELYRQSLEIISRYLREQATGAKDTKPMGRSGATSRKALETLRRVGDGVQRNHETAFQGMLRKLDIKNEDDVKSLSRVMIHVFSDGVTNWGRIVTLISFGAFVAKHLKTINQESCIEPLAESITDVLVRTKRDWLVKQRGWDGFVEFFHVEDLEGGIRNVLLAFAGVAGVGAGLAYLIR

The assay addresses Induced myeloid leukemia cell differentiation protein Mcl-1 (Homo sapiens) (UniProt Q07820). The assay is described as follows: blockers of Bid binding to Mcl-1 – biochemical, TR-FRET, dose response (AID 1418). Particulars: Mcl-1/Bid peptide binding, TR-FRET (europium/Dy647), 2 hr.
In the case of `O=C(O)c1cc(-c2ccc(/C=C3/SC(=S)N(Cc4ccccc4)C3=O)o2)ccc1Cl`, the IC50 is 1.7 µM.

For `Cc1occc1C(=O)NNC(=O)Nc1ccc([N+](=O)[O-])cc1`, the IC50 is > 54 µM (inactive).

Regarding `Brc1ccccc1`, the IC50 was > 54 µM (inactive).

Consider `Cc1ccc(-n2c(SCC(=O)NCc3ccco3)nc3sc4c(c3c2=O)CC(C)(C)SC4)cc1`, for which the IC50 is > 54 µM (inactive).

With `COc1ccc(CN2C(=O)c3cccnc3C2O)cc1` (stereo not drawn), the IC50 was 0.71 µM.

On to `Oc1c(Cl)cc(Cl)c(Cl)c1Cc1c(O)c(Cl)cc(Cl)c1Cl`, for which the IC50 was 0.86 µM.

Consider `C#CCn1cc(/C=N/NC(=O)COc2cccc3cccnc23)c2ccccc21`, for which the IC50 is 0.86 µM.

On to `O=c1c2ccccc2nc2n1CCC2`, for which the IC50 is 0.52 µM.

In the case of `CN(C)CCCCOc1ccccc1-c1ccccc1`, the IC50 is > 54 µM (inactive).

Take `Cc1ccc(-c2nc(CS(=O)CC(=O)N3CCC4(CC3)OCCO4)c(C)o2)cc1` (stereo not drawn): the IC50 was > 54 µM (inactive).

`Cc1ccc(NC(=S)N2CCN(c3ncccn3)CC2)cc1C`: the IC50 was > 54 µM (inactive).

With `Cc1ccccc1C(=O)Nc1ccc2c(C#N)c3nc4ccccc4nc3n2c1`, the half-inhibitory concentration (IC50) was 1.05 µM.

In the case of `CC(NC(=O)Cn1cnc2c1c(=O)n(C)c(=O)n2C)c1ccccc1` (stereo not drawn), the IC50 was > 54 µM (inactive).

As to `O=C(CSc1nnc(COc2cccc3cccnc23)o1)N1CCc2ccccc21`, the IC50 result is “inactive”.

With `Cc1cc(O)ccc1N/C=C(\C#N)c1nc2ccccc2o1`, the IC50 is > 54 µM (inactive).

Take `Cc1cc(N2CC(C)OC(C)C2)n2cc(-c3ccccc3)nc2n1` (stereo not drawn): the IC50 was > 54 µM (inactive).

As for `O=C(N/N=C/c1ccc(F)cc1)c1cc(-c2ccco2)nc2ccccc12`, the half-inhibitory concentration (IC50) was 3.3 µM.

Consider `N=C1/C(=C/c2ccc(-c3cccc(C(=O)O)c3)o2)C(=O)N=C2SC=C(c3ccccc3)N12`, for which the IC50 was 1.02 µM.

Turning to `CCOC(=O)c1c(C)oc2cc(Br)c(OC(=O)N3CCOCC3)cc12`, the IC50 is > 54 µM (inactive).

As to `O=C(NC1CCCCC1)C(c1ccc2ncccc2c1)N(Cc1ccccc1)C(=O)c1ccc2c(c1)OCCO2` (stereo not drawn), the IC50 was > 54 µM (inactive).

As to `CSc1nc(SCC(=O)O)c2sc3nc(-c4ccccc4)c4c(c3c2n1)CCC4`, the IC50 was 1.53 µM.

Turning to `CC1(C)Cc2cccc(OCC(=O)OCC(=O)Nc3cccc(S(N)(=O)=O)c3)c2O1`, the IC50 is > 54 µM (inactive).

For the compound `O=C(CCC(=O)c1ccc(Oc2ccccc2)cc1)Nc1cccc(Cl)c1`, the IC50 is > 54 µM (inactive).

Consider `CCOC(=O)c1c(-c2ccco2)csc1NC(=O)CSc1nnc(N)s1`, for which the IC50 was > 54 µM (inactive).

`O=C1NC(=S)N/C1=C/c1ccc(-c2c(Br)cc([N+](=O)[O-])cc2Br)o1`: the IC50 is 1.59 µM.

With `CC1CN(C(=O)c2cccc(C(=O)N3CC(C)OC(C)C3)c2)CC(C)O1` (stereo not drawn), the IC50 was > 54 µM (inactive).

Consider `COc1ccccc1CNC(=O)CC(NS(=O)(=O)c1ccc(C)cc1)c1ccco1` (stereo not drawn), for which the IC50 was > 54 µM (inactive).

As to `N#Cc1c2nc3ccccc3nc2n2cc(NC(=O)c3ccc(F)cc3)ccc12`, the IC50 is 0.71 µM.

As to `CN(C)c1ccc(/C=c2\sc3nc(-c4ccccc4)nn3c2=O)cc1`, the half-inhibitory concentration (IC50) is 5.15 µM.

With `FC(F)(F)c1ccncc1-c1nnnn1-c1ccc(Cl)cc1`, the IC50 was > 54 µM (inactive).

`COc1cc(NC(=O)COc2ccccc2)c(OC)cc1NC(C)=O`: the IC50 is > 54 µM (inactive).

Turning to `CC(=O)c1ccc(NC(=O)C(C)n2c3ccccc3c3nc(=O)cc(C)n32)cc1` (stereo not drawn), the IC50 is > 54 µM (inactive).

Regarding `Cc1ccc(C(=O)NNC(=O)CCC(=O)Nc2cc(C)on2)cc1`, the IC50 is > 54 µM (inactive).

As for `CCOc1ccccc1NC(=O)CN(C)S(=O)(=O)c1cccc2nsnc12`, the IC50 is > 54 µM (inactive).

In the case of `CC(C)C1(C)N=C(c2ncccc2C(=O)O)NC1=O` (stereo not drawn), the IC50 is > 54 µM (inactive).

On to `COc1cccc(OC)c1C(=O)N1CCN(c2ccccn2)CC1`, for which the IC50 is > 54 µM (inactive).

In the case of `COc1ccc(-n2cc(-c3ccc(OC(F)F)cc3)[n+]3c2CCCCC3)cc1`, the IC50 was > 54 µM (inactive).

As to `COc1cc(/C=C2\SC(=O)N(Cc3ccc(Cl)cc3)C2=O)cc([N+](=O)[O-])c1O`, the IC50 is 16.9 µM.

As to `Cc1ccc(S(=O)(=O)N(CC(=O)N/N=C/c2cccc(Cl)c2)c2cccc3cccnc23)cc1`, the IC50 is > 54 µM (inactive).

Take `COc1cc(OC)c2c(O)c3c(c(-c4c5c(c(O)c6c(OC)cc(OC)cc46)CO[C@@H](C)[C@H]5O)c2c1)[C@H](O)[C@H](C)OC3`: the IC50 was 14.4 µM.

`O=C(ONc1ccc(N=NC(=O)c2ccccc2O)cc1)c1ccccc1`: the IC50 result is “inactive”.

On to `COc1ccc(Cl)cc1C(Nc1cccnc1)c1ccc2cccnc2c1O` (stereo not drawn), for which the IC50 was 0.62 µM.

As to `COc1cccc2c1c(NC(=O)Nc1ccc(F)cc1F)nn2C`, the IC50 was > 54 µM (inactive).

With `CC12CCC(C(=O)Nc3ccccc3-n3cccc3)(CC1=O)C2(C)C` (stereo not drawn), the IC50 was > 54 µM (inactive).

For `CCCOP(=O)(OCCC)C(NC(=O)c1ccccc1)=C(Cl)Cl`, the IC50 was 0.53 µM.

With `COc1ccc(-c2cc(C(F)(F)F)nc(N3CCOCC3)n2)cc1OC`, the IC50 was > 54 µM (inactive).

`CCSc1nnc(NC(=O)C(Cc2ccccc2)n2cccc2)s1` (stereo not drawn): the IC50 is > 54 µM (inactive).

For `Cc1cccc(CN2CCc3c(OCC(=O)NCc4ccco4)cccc3C2=O)c1`, the IC50 is > 54 µM (inactive).

Consider `COc1cc2c(cc1OC)C(Nn1cnnc1)=NC1(CCCC1)C2`, for which the IC50 is > 54 µM (inactive).

Take `O=C(Nc1sc2c(c1C(=O)O)CCC2)c1ccccc1`: the IC50 was > 54 µM (inactive).

Take `Cc1ccc(CSc2nnc(SCC(=O)N/N=C/c3c[nH]c4ccccc34)s2)cc1`: the IC50 is 0.53 µM.

`COC(=O)c1ccc(CNC(=O)c2c3c(nc4ccccc24)CCN(Cc2ccccc2)C3)cc1`: the IC50 is > 54 µM (inactive).

Take `N#Cc1cc(-c2ccccc2)nc(Oc2ccccc2)n1`: the IC50 was > 54 µM (inactive).

With `COc1ccc2nc(N3C(=O)/C(=C/c4ccc(Cl)cc4)NC3=S)sc2c1`, the IC50 was 1.75 µM.

Turning to `Cc1cccc(NC(=S)c2nc3ccccc3s2)c1`, the IC50 was > 54 µM (inactive).

Take `O=C(O)Cn1cnc2c(=S)nc[nH]c21`: the IC50 was > 54 µM (inactive).

Consider `CC(C)(C)CC(=O)O/N=C(\N)c1ccccn1`, for which the IC50 was > 54 µM (inactive).

With `Cc1ccc(-c2nn(CC(=O)NCc3cc(-c4nn(C)c(=O)c5ccccc45)ccc3C)c(=O)c3ccccc23)cc1`, the IC50 was 0.85 µM.

With `COc1ccccc1NC(=O)C(=O)N/N=C/c1ccc([N+](=O)[O-])s1`, the IC50 was > 54 µM (inactive).

Take `O=C(CSc1cccc[n+]1[O-])Nc1cc2c(cc1Cl)C(=O)c1ccccc1C2=O`: the IC50 is 9.39 µM.

Take `COc1ccc(-n2cccc2/C=C2\C(=N)N3N=C(c4ccco4)SC3=NC2=O)cc1`: the IC50 was 3.22 µM.

Take `N=C1S/C(=C\c2ccc(-c3cccc(Cl)c3)o2)C(=O)N1c1nccs1`: the IC50 was 1.05 µM.

Take `Cc1nc(C)n(CC(O)COc2ccc3c(c2)CCC3)n1` (stereo not drawn): the IC50 is > 54 µM (inactive).

As to `O=C(COc1ccc(S(=O)(=O)N2CCCC2)cc1Cl)NC1CC1`, the IC50 was > 54 µM (inactive).

Regarding `O=C(COc1cccnc1[N+](=O)[O-])c1ccc(Cl)s1`, the IC50 was > 54 µM (inactive).

For the compound `CCC(CC)NC(=O)COC(=O)c1cc(Br)ccc1Cl`, the IC50 was > 54 µM (inactive).

As for `Cc1cc(NS(=O)(=O)c2ccc(NC(NC(=O)C(C(F)(F)F)C(F)(F)F)(C(F)(F)F)C(F)(F)F)cc2)no1`, the IC50 was 1.62 µM.

Regarding `O=C(O)C1Nc2c(O)cc(Cl)c([N+](=O)[O-])c2C2C=CCC12` (stereo not drawn), the IC50 was 0.58 µM.

For the compound `CCOC(=O)Cc1csc(NC(=O)CSc2nnnn2-c2ccc(C)c(C)c2)n1`, the IC50 was > 54 µM (inactive).

For the compound `CN(C1=NC(=O)CS1)c1ccc(O)cc1`, the IC50 was > 54 µM (inactive).

Consider `COc1ccc(C2CC(c3ccccc3)Nc3nc(N)nn32)cc1` (stereo not drawn), for which the IC50 is > 54 µM (inactive).

As to `O=C(CCS(=O)(=O)c1ccccc1)Nc1ccccc1-c1nc2ccccc2s1`, the IC50 was > 54 µM (inactive).

Regarding `Cc1ccc(S(=O)(=O)CCNC(=O)Cc2ccccc2)cc1`, the IC50 is > 54 µM (inactive).

As for `COc1ccc(-c2csc(/C(C#N)=C\c3ccc(O)c([N+](=O)[O-])c3)n2)cc1OC`, the IC50 was > 54 µM (inactive).

Regarding `O=C(COC(=O)CCNS(=O)(=O)c1ccc2c(c1)OCCO2)NC1CCCc2ccccc21` (stereo not drawn), the IC50 is > 54 µM (inactive).

For the compound `O=C(CSc1nnc(SCc2ccc(Cl)cc2)s1)N/N=C/c1c[nH]c2ccccc12`, the IC50 is 0.44 µM.

As for `N=C1/C(=C\c2ccc(-c3ccc(C(=O)O)cc3)o2)C(=O)N=C2SC=C(c3ccccc3)N12`, the IC50 was 2.76 µM.

Turning to `N=c1oc2cc(O)ccc2cc1C(=O)Nc1nc2ccccc2s1`, the IC50 was > 54 µM (inactive).

With `COc1cc(/C=N/NC(=O)c2ccc(CN3c4cccc5cccc(c45)S3(=O)=O)cc2)cc(OC)c1O`, the IC50 is 1.41 µM.

Consider `O=[N+]([O-])c1cc(Br)c(O)c(/C=N/Nc2nnnn2-c2cccc3ccccc23)c1`, for which the concentration for half-maximal inhibition (IC50) was 13.9 µM.

As for `COc1cccc(C(=O)Nc2ccc3c(c2)C(=O)c2ccccc2C3=O)c1`, the IC50 is 2.79 µM.

Take `O=C(O)c1ccc(N2C(=O)/C(=C/c3ccc(-c4ccc([N+](=O)[O-])cc4)o3)C=C2c2ccccc2)cc1`: the IC50 was 1.42 µM.

For the compound `COC(=O)c1ccc2nc(Nc3nc4ccc(F)cc4s3)sc2c1`, the IC50 is 0.49 µM.

On to `COc1ccc(OC)c(Nc2nc(-c3cccc([N+](=O)[O-])c3)nc3ccccc23)c1`, for which the IC50 was > 54 µM (inactive).

As for `O=C1C(C=NCc2ccncc2)=C(O)c2ccccc21`, the IC50 is > 54 µM (inactive).

On to `Cc1cccc2c3nc4ccccc4nc3n(CCCN3C(=O)c4ccccc4C3=O)c12`, for which the IC50 is > 54 µM (inactive).

With `Cc1cccc(N(CC(=O)Nc2c(C)n(C)n(-c3ccccc3)c2=O)S(C)(=O)=O)c1`, the IC50 is > 54 µM (inactive).

With `COC(=O)c1ccccc1S(=O)(=O)N1CCn2cccc2C1C` (stereo not drawn), the IC50 is > 54 µM (inactive).
